These results are taken from patent publication US12606541B2, “PPARg modulators and methods of use” (Eisai R&D Management Co., Ltd., priority 2020, dated 2026).

Read-outs that look alike come from different tables or passages of the source. Bounds are passed on as bounds.

The subject of one test is UM-UC-9 engineered cells. Description: Cell proliferation / short-term viability assay, CellTiter-Glo 144 h. The test is classed as cell-based, human. To be noted: read-out: CTGlo 144 h UMUC9.5, G150. In outline: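 UM-UC-9 engineered assay-ready cells seeded at 500 cells/well in high-glucose DMEM/10% FBS, treated from dose-response plates, grown at 37° C, 5% CO2. CellTiter-Glo 2.0 luminescence read on day 7, with a day-0 pretreatment plate as T0 reference and DMSO wells as negative control.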
For orientation: In ATP-based viability assays light output follows the ATP content of the culture.

A further test concerns the target T1, His6-TEV-PPARγ-(234-505) (Homo sapiens, UniProt P37231).
T1 construct: The His6-TEV-PPARγ-(234-505) protein for assay was expressed and purified; TEV cleavage site (N); made in house
T1 sequence (P37231 234-505): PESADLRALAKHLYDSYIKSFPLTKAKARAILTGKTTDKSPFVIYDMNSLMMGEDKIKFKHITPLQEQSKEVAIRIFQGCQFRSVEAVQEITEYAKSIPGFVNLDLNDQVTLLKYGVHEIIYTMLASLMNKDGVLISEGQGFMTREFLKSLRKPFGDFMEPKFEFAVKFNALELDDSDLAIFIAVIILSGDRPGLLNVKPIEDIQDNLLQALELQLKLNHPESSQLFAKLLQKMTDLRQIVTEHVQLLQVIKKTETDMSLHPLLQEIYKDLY
The test is described as follows: TR-FRET Assay to Measure Co-R Peptide Recruitment to PPARγ. The following applies: Co-R peptide (SMRT-ID2) recruitment, top final concentration 20 μM, read-out: TR-FRET i-Ag, AC50. The test is classed as biochemical. Summed up: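 His-tagged PPARγ (or controls) was preincubated with compound for 20 minutes at room temperature, then 5 nM anti-His terbium antibody and 200 nM FITC-labeled SMRT-ID2 corepressor peptide (final) were added for a further hour. TR-FRET signal was normalized to percent response using 500 nM T0070907 and DMSO controls.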

Take `COc1cc(-c2cc(C(=O)N3CCC(C(=O)NC(C)c4cccc(Cl)c4)CC3)n[nH]2)c(Cl)cn1` (single isomer, unassigned) [Example 115-B]: in the test with UM-UC-9 engineered cells (listed as 115b), the IC50 stood at 263 nM. Further, the AC50 at His6-TEV-PPARγ-(234-505) (listed as 115b) amounted to 59.5 nM.
In the case of `COc1cc(-c2cc(C(=O)N3CC[C@H](C(=O)NC4(c5ncc(Cl)cc5Cl)CC4)CC34CC4)n[nH]2)c(F)cn1` [Example 458, (S)—N-(1-(3,5-dichloropyridin-2-yl)cyclopropyl)-4-(5-(5-fluoro-2-methoxypyridin-4-yl)-1H-pyrazole-3-carbonyl)-4-azaspiro[2.5]octane-7-carboxamide], the IC50 with UM-UC-9 engineered cells (Homo sapiens, UM-UC-9, 144 h) was 26.6 nM. Further, the AC50 at His6-TEV-PPARγ-(234-505) is 3.8 nM.
For the compound `COc1cc(-c2cc(C(=O)N3CCC(C(=O)NC4CCN(CC(F)(F)CO)C4)CC34CC4)n[nH]2)c(F)cn1` (mixture of isomers) [Example 459, (S)—N—((S)-1-(2,2-difluoro-3-hydroxypropyl)pyrrolidin-3-yl)-4-(5-(5-fluoro-2-methoxypyridin-4-yl)-1H-pyrazole-3-carbonyl)-4-azaspiro[2.5]octane-7-carboxamide and (S)—N—((R)-1-(2,2-difluoro-3-hydroxypropyl)pyrrolidin-3-yl)-4-(5-(5-fluoro-2-methoxypyridin-4-yl)-1H-pyrazole-3-carbonyl)-4-azaspiro[2.5]octane-7-carboxamide], the IC50 in the test on UM-UC-9 engineered cells is 102 nM. In addition, at His6-TEV-PPARγ-(234-505), the AC50 amounted to 11.7 nM.
`COc1cc(-c2cc(C(=O)N3CC[C@H](C(=O)NC(C)c4nnc(C5CC5)o4)CC34CC4)n[nH]2)c(F)cn1` (single isomer, unassigned) [Example 395-B]: the IC50 with UM-UC-9 engineered cells (Homo sapiens, UM-UC-9, 144 h) worked out at 593 nM. Besides, at His6-TEV-PPARγ-(234-505), the AC50 came to 671 nM.
With `COc1cc(-c2cc(C(=O)N3CCC(C(=O)NCc4cn5cccc(F)c5n4)CC3)n[nH]2)c(Cl)cn1` [Example 214, 1-(5-(5-chloro-2-methoxypyridin-4-yl)-1H-pyrazole-3-carbonyl)-N-((8-fluoroimidazo[1,2-a]pyridin-2-yl)methyl)piperidine-4-carboxamide], the IC50 in the test on UM-UC-9 engineered cells (Homo sapiens, UM-UC-9, 144 h) was found to be 1590 nM. The AC50 on His6-TEV-PPARγ-(234-505) is 194 nM.
For the compound `COc1cc(-c2cc(C(=O)N3CCC(C(=O)Nc4cnn5cc(C(C)O)ccc45)CC34CC4)n[nH]2)c(F)cn1` (mixture of isomers) [Example 495, (S)-4-(5-(5-fluoro-2-methoxypyridin-4-yl)-1H-pyrazole-3-carbonyl)-N-(6-((S)-1-hydroxyethyl)pyrazolo[1,5-a]pyridin-3-yl)-4-azaspiro[2.5]octane-7-carboxamide and (S)-4-(5-(5-fluoro-2-methoxypyridin-4-yl)-1H-pyrazole-3-carbonyl)-N-(6-((R)-1-hydroxyethyl)pyrazolo[1,5-a]pyridin-3-yl)-4-azaspiro[2.5]octane-7-carboxamide], in the test with UM-UC-9 engineered cells, the IC50 was determined as 186 nM. The AC50 at His6-TEV-PPARγ-(234-505) was 15.7 nM.
Consider `COc1cc(-c2cc(C(=O)N3CC[C@H](C(=O)NCc4ncc(N5CCN(C)CC5)cc4Cl)CC34CC4)n[nH]2)c(F)cn1` [Example 521, (S)—N-((3-chloro-5-(4-methylpiperazin-1-yl)pyridin-2-yl)methyl)-4-(5-(5-fluoro-2-methoxypyridin-4-yl)-1H-pyrazole-3-carbonyl)-4-azaspiro[2.5]octane-7-carboxamide], for which the IC50 in the test with UM-UC-9 engineered cells (Homo sapiens, UM-UC-9, 144 h) came out at 19.8 nM. Also, the AC50 on His6-TEV-PPARγ-(234-505) came to 1.8 nM.
As for `COc1cc(-c2cc(C(=O)N3CCC(C(=O)NCC4CCc5[nH]nc(C)c5C4)CC34CC4)n[nH]2)c(F)cn1` (mixture of isomers) [Example 382, (S)-4-(5-(5-fluoro-2-methoxypyridin-4-yl)-1H-pyrazole-3-carbonyl)-N—(((S)-3-methyl-4,5,6,7-tetrahydro-1H-indazol-5-yl)methyl)-4-azaspiro[2.5]octane-7-carboxamide and (S)-4-(5-(5-fluoro-2-methoxypyridin-4-yl)-1H-pyrazole-3-carbonyl)-N—(((R)-3-methyl-4,5,6,7-tetrahydro-1H-indazol-5-yl)methyl)-4-azaspiro[2.5]octane-7-carboxamide], the IC50 in the test on UM-UC-9 engineered cells amounted to 10 nM. Further, the AC50 at His6-TEV-PPARγ-(234-505) stood at 4 nM.
`COc1cc(-c2cc(C(=O)N3CCC(C(=O)NCc4ccc5c(c4)CCS5(=O)=O)CC3)n[nH]2)c(Cl)cn1` [Example 237, 1-(5-(5-chloro-2-methoxypyridin-4-yl)-1H-pyrazole-3-carbonyl)-N-((1,1-dioxido-2,3-dihydrobenzo[b]thiophen-5-yl)methyl)piperidine-4-carboxamide]: the IC50 with UM-UC-9 engineered cells (Homo sapiens, UM-UC-9, 144 h) is > 10000 nM. For the same compound, the AC50 at His6-TEV-PPARγ-(234-505) worked out at 722 nM.
For `CCc1cc(-c2cc(C(=O)N3CCC(C(=O)NCc4cccc(Cl)c4)CC3)n[nH]2)c(Cl)cn1` [Example 270, 1-[5-(5-chloro-2-ethylpyridin-4-yl)-1H-pyrazole-3-carbonyl]-N-[(3-chlorophenyl)methyl]piperidine-4-carboxamide] the same measures were 306 nM and 23.4 nM.
For `COc1cc(-c2cc(C(=O)N3CC[C@H](C(=O)NCc4nccnc4C)CC34CC4)n[nH]2)c(F)cn1` [Example 397, (S)-4-(5-(5-fluoro-2-methoxypyridin-4-yl)-1H-pyrazole-3-carbonyl)-N-((3-methylpyrazin-2-yl)methyl)-4-azaspiro[2.5]octane-7-carboxamide], in that order: 59.9 nM and 23.4 nM.
For `COc1cc(-c2cc(C(=O)N3CC[C@H](C(=O)NCc4ncc(N5CC(C)NC(C)C5)cc4Cl)CC34CC4)n[nH]2)c(F)cn1` (stereo partly drawn) [Example 434, (7S)—N-((3-chloro-5-(3,5-dimethylpiperazin-1-yl)pyridin-2-yl)methyl)-4-(5-(5-fluoro-2-methoxypyridin-4-yl)-1H-pyrazole-3-carbonyl)-4-azaspiro[2.5]octane-7-carboxamide], in that order: 45.3 nM and 11.9 nM.
Take `COc1cc(-c2cc(C(=O)N3CC[C@H](C(=O)NC4CCN(C5COC56CNC6)C4)CC34CC4)n[nH]2)c(F)cn1` (single isomer, unassigned) [Example 461-A]: the IC50 in the test on UM-UC-9 engineered cells is > 10000 nM. For the same compound, the AC50 on His6-TEV-PPARγ-(234-505) worked out at 272 nM.
Turning to `COc1cc(-c2cc(C(=O)N3CC[C@H](C(=O)N[C@H]4CC[C@@](OC[C@H](C)O)(C(F)(F)F)CC4)CC34CC4)n[nH]2)c(F)cn1` [Example 353, (S)-4-(5-(5-fluoro-2-methoxypyridin-4-yl)-1H-pyrazole-3-carbonyl)-N-((1S,4S)-4-((S)-2-hydroxypropoxy)-4-(trifluoromethyl)cyclohexyl)-4-azaspiro[2.5]octane-7-carboxamide], the IC50 with UM-UC-9 engineered cells (Homo sapiens, UM-UC-9, 144 h) stood at 6 nM. Further, the AC50 at His6-TEV-PPARγ-(234-505) came out at 6.6 nM.
On to `COc1cc(-c2cc(C(=O)N3CC[C@H](C(=O)Nc4cnn5cc(C(C)O)ccc45)CC34CC4)n[nH]2)c(F)cn1` (single isomer, unassigned) [Example 495-B], for which the IC50 with UM-UC-9 engineered cells amounted to 144 nM. In addition, the AC50 on His6-TEV-PPARγ-(234-505) was 13.3 nM.
As to `COc1cc(-c2cc(C(=O)N3CC[C@H](C(=O)NC4CCN(C5COC56CNC6)C4)CC34CC4)n[nH]2)c(F)cn1` (single isomer, unassigned) [Example 461-D], the IC50 in the test on UM-UC-9 engineered cells is > 10000 nM. Besides, the AC50 on His6-TEV-PPARγ-(234-505) stood at 388 nM.
Turning to `Cc1nccc(-c2cc(C(=O)N3[C@@H]4CC[C@H]3C[C@H](C(=O)N[C@H]3CC[C@@](O)(C(F)(F)F)CC3)C4)n[nH]2)c1C` [Example 314, (1R,3s,5S)-8-(5-(2,3-dimethylpyridin-4-yl)-1H-pyrazole-3-carbonyl)-N-((1r,4R)-4-hydroxy-4-(trifluoromethyl)cyclohexyl)-8-azabicyclo[3.2.1]octane-3-carboxamide], the IC50 with UM-UC-9 engineered cells (Homo sapiens, UM-UC-9, 144 h) was > 10000 nM. Further, the AC50 on His6-TEV-PPARγ-(234-505) was 347 nM.
Turning to `COc1cc(-c2cc(C(=O)N3CCC(C(=O)NC4CN(CC5(O)CC5)CC4(F)F)CC34CC4)n[nH]2)c(F)cn1` (mixture of isomers) [Example 470, (S)—N—((R)-4,4-difluoro-1-((1-hydroxycyclopropyl)methyl)pyrrolidin-3-yl)-4-(3-(5-fluoro-2-methoxypyridin-4-yl)-1-pyrazole-5-carbonyl)-4-azaspiro[2.5]octane-7-carboxamide and (S)—N—((S)-4,4-difluoro-1-((1-hydroxycyclopropyl)methyl)pyrrolidin-3-yl)-4-(3-(5-fluoro-2-methoxypyridin-4-yl)-1H-pyrazole-5-carbonyl)-4-azaspiro[2.5]octane-7-carboxamide], the IC50 with UM-UC-9 engineered cells turned out to be 897 nM. Moreover, the AC50 at His6-TEV-PPARγ-(234-505) is 112 nM.
For `COc1cc(-c2cc(C(=O)N3CCC(C(=O)NCc4ccc5cnn(C)c5c4)CC3)n[nH]2)c(Cl)cn1` [Example 229, 1-(5-(5-chloro-2-methoxypyridin-4-yl)-1H-pyrazole-3-carbonyl)-N-((1-methyl-1H-indazol-6-yl)methyl)piperidine-4-carboxamide], the IC50 in the test with UM-UC-9 engineered cells (Homo sapiens, UM-UC-9, 144 h) stood at 614 nM. Also, the AC50 at His6-TEV-PPARγ-(234-505) came out at 70.6 nM.
